Assay results published in patent US10071084B2, “Nanoparticle, method of preparating the same, and use of the nanoparticle” (Samsung Electronics Co., Ltd., priority 2013, dated 2018).

Tested on: HepG2 liver cancer cells
Test: Cytotoxicity by released nanoparticles containing SRF and BSA: cell viability, CCK-8 kit
Format: cell-based
Details: Homo sapiens, 50 μM SRF dissolved in DMSO, 3 hours incubation at 37° C., then 3 days in fresh medium, relative to DMSO-treated cells
Experimental: Liposomes that were sonicated were incubated with cells to confirm the cell viability.
The liposomes of Example 4 were sonicated at a temperature of 25° C. for 16 minutes by using a pool-type sonicator (Branson).
The sonicated liposomes, unsonicated liposomes, 50 μM of SRF (Santa Cruz Biotechnology, Inc.) dissolved in dimethyl sulfoxide (DMSO) (Aldrich), or DMSO itself was added to about 5,000 HepG2 liver cancer cells, followed by being incubated at a temperature of 37° C. for 3 hours. Here, the medium used in the incubation was exchanged with fresh medium. The cells were incubated for at a temperature of 37° C. for 3 days, and number of the cells was counted by using a CCK-8 kit (Dojindo). The cell viability was relatively calculated with respect to the number of the cells that were treated with DMSO, and the results were shown in FIG. 7 (1: DMSO, 2: SRF dissolved in DMSO, 3: liposomes that are not sonicated, 4: liposomes that are sonicated for 16 minutes).

SMILES: CNC(=O)c1cc(Oc2ccc(NC(=O)Nc3ccc(Cl)c(C(F)(F)F)c3)cc2)ccn1 [SRF, sorafenib]
- viability at 50 µM: ~36%
